According to PubChem BioAssay AID179 (DTP/NCI, 2004):
Calls of active or inactive are those of the source.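 Rule for the calls: active = compounds giving half or more protection of infected cells from virus-caused growth loss, again on retest; inactive = the rest.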

System: CEM cells HIV-1 protection, formazan growth assay
Assay: NCI AIDS Antiviral Assay
Settings: for IC50: measured here: growth of uninfected CEM cells
Procedure: The ability of compounds to protect human CEM cells from HIV-1 infection is measured as a screen for new compounds capable of inhibiting the HIV virus. Five concentrations of drug were tested on uninfected and infected cells and cell growth was measured using a soluble formazan assay. […] Compounds that provided at least 50% protection were retested. Compounds that provided at least 50% protection on retest were listed as moderately active. Compounds that reproducibly provided 100% protection were listed as confirmed active. […] Note that the inability to provide protection could be due to toxicity.

O=c1oc(-c2ccccc2)cn1-c1ccccc1
outcome: inactive

O=C(OCCN=c1c2ccccc2ccc2ccccc12)c1ccc([N+](=O)[O-])cc1
EC50: > 200 µM
IC50: > 200 µM

Cc1ccc(N(C(=O)CC(=O)N2N=C(c3ccccc3)C(N=Nc3ccc([N+](=O)[O-])cc3)C2=O)C(=O)c2ccc(Cl)cc2)cc1 (stereo not drawn)
EC50: > 11.5 µM
IC50: 9.12 µM

Cc1cc(C)c2c(c1)CC(C)(C)C(=O)OC2=O
EC50: > 112 µM
IC50: > 112 µM

CC(C)Oc1cc2c(c3oc(=O)cc(CCl)c13)C(=O)[C@H](C)[C@@H](C)O2
EC50: > 200 µM
IC50: 5.37 µM

CC#CCC(OC(C)=O)c1ccccc1 (stereo not drawn)
outcome: inactive

CCOP(=O)(CCP(=O)(OCC)OCC)OCC.C[CH2][Sn]([Cl])([Cl])[CH2]C
outcome: inactive

Cc1cccc(-n2c(C)nc3ccc(NC4OC(CO)C(O)C(O)C4O)cc3c2=O)c1 (stereo not drawn)
EC50: > 200 µM
IC50: > 200 µM

O=C(C[n+]1ccccc1)N=N/C(C(=O)Nc1c(Cl)c(O)c2ccccc2c1O)=C1/C(=O)Oc2cc(O)ccc2C1=O
EC50: > 22.4 µM
IC50: 12 µM

O=C(CC1(O)C(=O)Nc2c(Cl)cc(Cl)cc21)c1ccc(Br)cc1Br (stereo not drawn)
EC50: > 51.3 µM
IC50: 44.7 µM

CCOC(=O)C1(C(C)C)OC2CCCCCN2C1=O (stereo not drawn)
EC50: > 589 µM
IC50: > 589 µM

CCCn1c2ccccc2c2ccc3c(c21)C(=O)C=CC3=O
EC50: > 200 µM
IC50: 1.17 µM

CC(=O)n1cc(CC(C)O)c(=O)[nH]c1=O (stereo not drawn)
EC50: > 1170 µM
IC50: > 1170 µM

C=CCC12CC(=O)CCC1c1ccc(OC)cc1C2=O (stereo not drawn)
EC50: > 251 µM
IC50: 141 µM

CC(=O)OC1CCC2(C)C(C)C(C)CCC2(O)C1O (stereo not drawn)
EC50: > 200 µM
IC50: 15.1 µM

COC(=O)C1C2C1C1C=CC2n2c(=O)n(-c3ccccc3)c(=O)n21 (stereo not drawn)
EC50: > 200 µM
IC50: > 200 µM

N#Cc1ccc(C=C2C(=O)c3ccccc3C2=O)cc1
EC50: > 72.4 µM
IC50: 46.8 µM

COc1ccccc1NC(=O)C1=C(C)NC(C)=C(C(=O)Nc2ccccc2OC)C1c1ccccc1Cl
outcome: inactive

O=[N+]([O-])c1ccccc1Nc1ccccc1
outcome: inactive

O=C1C2N=NNC2C(=O)N1c1ccccc1 (stereo not drawn)
EC50: > 200 µM
IC50: > 200 µM

OCCCSCCCCSCCCO
EC50: > 41.7 µM
IC50: > 41.7 µM

COc1cc2c(cc1Oc1c(O)c(OC)cc3c1C(C)N(C)CC3)C(C)N(C)CC2 (stereo not drawn)
EC50: > 200 µM
IC50: > 200 µM

Cc1ccc(NC(=S)/C(=C(/[O-])c2ccc([N+](=O)[O-])cc2)[n+]2ccccc2)c(C)c1
EC50: > 200 µM
IC50: > 200 µM

CCN(CC)CCn1nc(N)c2nc3cc(Cl)ccc3nc21
EC50: > 100 µM
IC50: 51.3 µM

c1ccc(CSC2(SCc3ccccc3)CCCCC2)cc1
EC50: > 200 µM
IC50: 77.6 µM

C/C=C/CC(C)[C@@H](O)[C@H](NC)C(=O)O (stereo partly drawn)
outcome: inactive

CS/C(=N\c1nccs1)NC(=O)c1cccc(Cl)c1
EC50: > 58.9 µM
IC50: > 58.9 µM

O=S1c2ccccc2N=C(c2ccc3ccccc3c2)CC1c1ccccc1 (stereo not drawn)
EC50: > 19.1 µM
IC50: > 19.1 µM

O=c1[nH]nc(Cc2ccccc2)n1CCCl
EC50: > 200 µM
IC50: > 200 µM

N#Cc1ccc(SSc2ccc(C#N)cc2)cc1
EC50: > 200 µM
IC50: 9.55 µM

COc1ccc(-c2nc(Nc3ccccc3)sc2Cc2sc(Nc3ccccc3)nc2-c2ccc(OC)cc2)cc1
outcome: inactive

COc1cc(CNc2nc3cc(C(F)(F)F)ccc3nc2C(=O)O)cc(OC)c1OC
EC50: > 200 µM
IC50: 97.7 µM

Cc1ccc(C2=Nc3c(c(C)nn3-c3ccccc3)N=C(C(=O)O)C2)cc1
EC50: > 200 µM
IC50: 75.9 µM

CCOC(=O)/C=C1/Nc2cc(Cl)c(Cl)cc2NC1=O
EC50: > 9.12 µM
IC50: > 9.12 µM

O=C(O)C1CCC(C(=O)O)SS1 (stereo not drawn)
EC50: > 1200 µM
IC50: > 1200 µM

COC(=O)c1cc2cc(CS(=O)(=O)O)ccc2cc1O
EC50: > 200 µM
IC50: 102 µM

COc1cc2c(c(OC)c1)C1(CC(CC#N)C2)SCCS1 (stereo not drawn)
outcome: inactive

Cc1cc(=O)[nH]c(NN2C(Cl)C(=O)C2c2cccc(O)c2)n1 (stereo not drawn)
EC50: > 295 µM
IC50: 1.86 µM
